Data taken from patent US20220000964A1, “Compositions and Methods for Regulating Homeostasis of Chondrocytes, Extracellular Matrix, Articular Cartilage, and Phenotype of Arthritis” (Unigen, Inc., priority 2020, published 2022).
Like-named read-outs stand apart in the source and are kept apart here.

Experiments:
Type in all cases: in vivo, rat
Sprague Dawley rats = test: Hot plate test, topical application, paw withdrawal latency; conditions: dose (%): Ibuprofen 5, Capsaicin 0.5, Diclofenac 1, others 5
Text: Repeated application of anti-inflammatory compounds or extracts topically at the site of thermal contact (noxious stimulus) may cause desensitization of the peripheral afferent pain receptors to produce a delay in response time. A longer change in reaction time could be interpreted as an anti-nociceptive effect of the applied compound. To evaluate whether prepared plant extracts and compositions could provide anti-nociceptive activity, rats received orally-active anti-inflammatory extracts formulated in 2% Aloe vera gel at 5% concentration topically on their hind paws. The applied preparations on each paw were massaged at least 60 times in a circular motion into the skin until the applied content appeared visually absorbed. The procedure was repeated 3 times, every 30 minutes, before placing the animals on a preheated hot plate set to 53° C. The paw withdrawal latency was calculated as the time elapsed from the initial placement of the rat onto the hotplate to the withdrawal (or licking or shaking) of the hind paw in response to the thermal stimulus. Animals were immediately removed when this response was observed.
The anti-pain activity of medicinal plant extracts was tested on a hot plate set at 53° C. Test materials at 5% concentrations were topically applied at 20 μl/paw to the hind paws of both right and left paws of Sprague Dawley rats (n=10 per group). Applications of these extracts were carried out every 30 minutes for a total of 90 minutes. Within these 90 minutes, rats received a total of 60 μl/paw of the test article per rat. At 5% concentration, each rat received 3 mg/paw of the test articles. Due to the solubility characteristics of the compounds, two types of vehicles, V1=Dimethyl sulfoxide (DMSO)+propylene glycol (PG)+Aloe (2%), and V2=DMSO+OIL+PG, were used. Percent changes and P-values for statistical significance were determined using respective vehicles for each test material. The vehicle used for each material has been indicated in the parenthesis next to the test material. […] These increases in anti-pain activity were statistically significant. […] This percent change was statistically significant when compared to its respective vehicle.

IL-6 = test: MIA-induced OA rats, serum IL-6; conditions: 10 mg/kg
Method: Treatment started a week before MIA injection. […] On the induction day, isoflurane (Lot #B66H15A, Piramal Enterprise Ltd. Andhra Pradesh, India) anesthetized rats were injected with 0.8 mg of MIA (Lot #A0352046, Acros Organics, New Jersey, USA) in 50 μL saline solution into the intra-articular pocket of left femorotibial (knee) joint using 26 G needle an hour after treatment. Normal control rats were injected with an equal volume of saline. […] Body weights were measured once a week to calculate the respective weekly dosage of each group. […] The fixed specimens were then decalcified with Calci-Clear Rapid for 1 and a half days and embedded in paraffin. […] The histological analysis was conducted by a certified Pathologist at Nationwide Histology.

MIA-induced OA rats [1] = test: MIA-induced OA rats, pain sensitivity (paw withdrawal threshold, Randall-Salitto); conditions: 10 mg/kg oral; for inhibition at 10 mg/kg: Rattus norvegicus, po, read-out: Knee compression sensitivity, percent inhibition against vehicle treated MIA rats
Text: The MIA-induced OA disease model in rats is a standardized model most frequently used to mimic human OA (Lee et al., 2014). The model involves inoculation of MIA into a femorotibial joint pocket that induces pain responses in the ipsilateral limb accompanied by progressive cartilage degradation. Intra-articular injection of MIA disrupts chondrocyte glycolysis by inhibiting […] and results in chondrocyte death, neovascularization, subchondral bone necrosis and collapse, as well as inflammation (Guzman et al., 2003). These phenotypic characteristics make the model very attractive to evaluate compounds for their anti-inflammatory, analgesic and/or potential disease-modifying activities as it shares similar disease pathology to the human OA. As a result, we selected this validated in vivo model to investigate the effect of AMK in mitigating pain sensitivity, regulating the phenotype of joint tissue and maintaining articular structural integrity after being administered orally for 6 weeks.
(§1) Treatment started a week before MIA injection. Animals were randomized into five groups of 10 rats per group as G1=normal, G2=vehicle (0.5% CMC-Na solution), G3=Diclofenac (10 mg/kg, Lot #W08B043, Ward Hill, Mass.), G4=AMK (100 mg/kg) and G5=AMK (300 mg/kg), were orally gavaged with respective treatment. On the induction day, isoflurane (Lot #B66H15A, Piramal Enterprise Ltd. Andhra Pradesh, India) anesthetized rats were injected with 0.8 mg of MIA (Lot #A0352046, Acros Organics, New Jersey, USA) in 50 μL saline solution into the intra-articular pocket of left femorotibial (knee) joint using 26 G needle an hour after treatment. Normal control rats were injected with an equal volume of saline. Paw withdrawal thresholds as a result of constant pressure applied to the affected joint as a measure of pain sensitivity were taken once a week using Randall-Salitto Anesthesiometer (IITC, USA) and treatment lasted for 6 weeks. Body weights were measured once a week to calculate the respective weekly dosage of each group. Urine was collected at the end of study using metabolic cages. Blood samples were collected to isolate serum for biomarker analysis. At necropsy, animals were asphyxiated with CO2 and the femorotibial joint was carefully dissected out, fixed in 10% buffered formalin and sent to Nationwide Histology (Veradale, Wash., USA) for further histopathology analysis. The fixed specimens were then decalcified with Calci-Clear Rapid for 1 and a half days and embedded in paraffin. Standardized […] serial sections were obtained at the medial and lateral mid-condylar level in the sagittal plane and were stained with hematoxylin and eosin (HE) and Safranin O-fast green to enable evaluation of proteoglycan content. A modified Mankin system (Mankin et al., 1981) was used to score structural and cellular alterations of articular components as indications of disease progression and/or treatment efficacy. The histological analysis was conducted by a certified Pathologist at Nationwide Histology.

MIA-induced OA rats [2] = test: MIA-induced OA rats, histopathology (modified Mankin); conditions: 10 mg/kg
Method: as §1

O=C(O)Cc1ccccc1Nc1c(Cl)cccc1Cl [Diclofenac]
Paw withdrawal threshold (latency) Mean ± SD (Sprague Dawley rats; hot plate 53° C., topical, vehicle V1 (DMSO+PG+Aloe 2%), in s (unit assumed)): 6.93 ± 1.50
% Change (Sprague Dawley rats; vs vehicle V1, negative = increased paw withdrawal latency): 2.8%
IL-6 (IL-6): 114.2 ± 5.5 pg/mL
inhibition at 10 mg/kg (MIA-induced OA rats [1]; Wk-0): 0.3%
inhibition at 10 mg/kg (MIA-induced OA rats [1]; Wk-1): 19.7%
inhibition at 10 mg/kg (MIA-induced OA rats [1]; Wk-2): 24.1%
inhibition at 10 mg/kg (MIA-induced OA rats [1]; Wk-3): 28.3%
inhibition at 10 mg/kg (MIA-induced OA rats [1]; Wk-4): 30.8%
inhibition at 10 mg/kg (MIA-induced OA rats [1]; wk-5): 31.1%
Knee compression sensitivity (Mean ± SD) (MIA-induced OA rats [1]; Wk-0): 243.1 ± 2.4
Knee compression sensitivity (Mean ± SD) (MIA-induced OA rats [1]; Wk-1): 190.9 ± 2.3
Knee compression sensitivity (Mean ± SD) (MIA-induced OA rats [1]; Wk-2): 190.5 ± 2.6
Knee compression sensitivity (Mean ± SD) (MIA-induced OA rats [1]; Wk-3): 183.8 ± 2.3
Knee compression sensitivity (Mean ± SD) (MIA-induced OA rats [1]; Wk-4): 183.3 ± 1.7
Knee compression sensitivity (Mean ± SD) (MIA-induced OA rats [1]; wk-5): 182.0 ± 1.1
inhibition in catabolic inflammation and infiltration of inflammatory cells (MIA-induced OA rats [2]; MIA rats): 42.8%
reduction in matrix GAG loss (MIA-induced OA rats [2]; MIA rats): 34.6%
reduction of overall structural abnormalities (MIA-induced OA rats [2]; MIA rats): 41.1%
Bone Erosion (Mean ± SE) (MIA-induced OA rats [2]; modified Mankin score): 3.08 ± 0.50
Cartilage destruction (Mean ± SE) (MIA-induced OA rats [2]; modified Mankin score): 4.00 ± 0.76
GAG Loss (Mean ± SE) (MIA-induced OA rats [2]; modified Mankin score): 3.08 ± 0.57
Inflammation (Mean ± SE) (MIA-induced OA rats [2]; modified Mankin score): 1.31 ± 0.22
Bone Erosion, reduction (value in parenthesis) (MIA-induced OA rats [2]; vs MIA+ vehicle): (40.8) %
Cartilage destruction, reduction (value in parenthesis) (MIA-induced OA rats [2]; vs MIA+ vehicle): (41.10%
GAG Loss, reduction (value in parenthesis) (MIA-induced OA rats [2]; vs MIA+ vehicle): (34.6) %
Inflammation, reduction (value in parenthesis) (MIA-induced OA rats [2]; vs MIA+ vehicle): (42.8) %
